Experimental data published in the supplement of paper PMC11061612.

Assays:
AZD6738 = compound: C[C@@H]1COCCN1C2=NC(=NC(=C2)C3(CC3)[S@](=N)(=O)C)C4=C5C=CNC5=NC=C4 [AZD6738]; details: max 10 µM
How it was run: (§1)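 Plates with 1536 wells received cancer cell lines in 7.5 μl of DMEM/F12 or RPMI containing 10% FBS. After 24 hours at 37°C and 5% CO2, cells were dosed for 72 hours with final DMSO typically 0.2%, and viability was read by CellTiter-Glo 2.0 luminescence scaled between blank-well and DMSO-well means. The single-agent IC50 was taken from a logistic fit of the dose responses made with a non-linear mixed effects model, that logistic curve having two parameters.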

Dasatinib = compound: CC1=C(C(=CC=C1)Cl)NC(=O)C2=CN=C(S2)NC3=CC(=NC(=N3)C)N4CCN(CC4)CCO [Dasatinib]; details: max 2 µM
How it was run: as §1

Olaparib = compound: O=C(c1cc(Cc2n[nH]c(=O)c3ccccc23)ccc1F)N1CCN(C(=O)C2CC2)CC1 [Olaparib]; details: max 10 µM
How it was run: as §1

5-Fluorouracil = compound: O=c1[nH]cc(F)c(=O)[nH]1 [5-Fluorouracil]; details: max 20 µM
How it was run: as §1

AZD2811 = compound: CCN(CCO)CCCOc1ccc2c(Nc3cc(CC(=O)Nc4cccc(F)c4)[nH]n3)ncnc2c1 [AZD2811]; details: max 1 µM
How it was run: as §1

Crizotinib = compound: C[C@@H](Oc1cc(-c2cnn(C3CCNCC3)c2)cnc1N)c1c(Cl)ccc(F)c1Cl [Crizotinib]; details: max 10 µM
How it was run: as §1

Selumetinib = compound: Cn1cnc2c(F)c(Nc3ccc(Br)cc3Cl)c(C(=O)NOCCO)cc21 [Selumetinib]; details: max 10 µM
How it was run: as §1

Trametinib = compound: CC(=O)Nc1cccc(-n2c(=O)n(C3CC3)c(=O)c3c(Nc4ccc(I)cc4F)n(C)c(=O)c(C)c32)c1 [Trametinib]; details: max 1 µM
How it was run: as §1

Etoposide = compound: COc1cc([C@@H]2c3cc4c(cc3[C@@H](O[C@@H]3O[C@@H]5CO[C@@H](C)O[C@H]5[C@H](O)[C@H]3O)[C@H]3COC(=O)[C@H]23)OCO4)cc(OC)c1O [Etoposide]; details: max 10 µM
How it was run: as §1

[1] = compound: O=C(Nc1ccc2[nH]nc(-c3ccncc3)c2c1)[C@@H]1CCN(CC(=O)N2CCN(c3ccc(-c4ncccn4)cc3)CC2)C1; details: max 5 µM
How it was run: as §1

SG3199 = compound: CC1=CN2[C@@H](C1)C=NC3=CC(=C(C=C3C2=O)OC)OCCCCCOC4=C(C=C5C(=C4)N=C[C@@H]6CC(=CN6C5=O)C)OC [SG3199]; details: max 0.001 µM
How it was run: as §1

SRA737 = compound: N#Cc1cnc(Nc2cc(NC[C@H]3CNCCO3)c(C(F)(F)F)cn2)cn1 [SRA737]; details: max 10 µM
How it was run: as §1

Paclitaxel = compound: CC(=O)O[C@H]1C(=O)[C@@]2(C)[C@H]([C@H](OC(=O)c3ccccc3)[C@]3(O)C[C@H](OC(=O)[C@H](O)[C@@H](NC(=O)c4ccccc4)c4ccccc4)C(C)=C1C3(C)C)[C@]1(OC(C)=O)CO[C@@H]1C[C@@H]2O [Paclitaxel]; details: max 3 µM
How it was run: as §1

Lapatinib = compound: CS(=O)(=O)CCNCc1ccc(-c2ccc3ncnc(Nc4ccc(OCc5cccc(F)c5)c(Cl)c4)c3c2)o1 [Lapatinib]; details: max 10 µM
How it was run: as §1

AZD4320 = compound: CN(CC[C@H](CSC1=CC=CC=C1)NC2=C(C=C(C=C2)S(=O)(=O)NC(=O)C3=CC=C(C=C3)N4CCC(CC4)[C@H](C5=CC=CC=C5C6=CC=C(C=C6)Cl)O)S(=O)(=O)C(F)(F)F)CCO [AZD4320]; details: max 1 µM
How it was run: as §1

Gefitinib = compound: COc1cc2ncnc(Nc3ccc(F)c(Cl)c3)c2cc1OCCCN1CCOCC1 [Gefitinib]; details: max 10 µM
How it was run: as §1

AZD1390 = compound: CC(C)n1c(=O)n(C)c2cnc3cc(F)c(-c4ccc(OCCCN5CCCCC5)nc4)cc3c21 [AZD1390]; details: max 0.3 µM
How it was run: as §1

Venetoclax = compound: CC1(C)CCC(CN2CCN(c3ccc(C(=O)NS(=O)(=O)c4ccc(NCC5CCOCC5)c([N+](=O)[O-])c4)c(Oc4cnc5[nH]ccc5c4)c3)CC2)=C(c2ccc(Cl)cc2)C1 [Venetoclax]; details: max 1 µM
How it was run: as §1

MK-2206 = compound: NC1(c2ccc(-c3nc4ccn5c(=O)[nH]nc5c4cc3-c3ccccc3)cc2)CCC1 [MK-2206]; details: max 10 µM
How it was run: as §1

SN-38 = compound: CCc1c2c(nc3ccc(O)cc13)-c1cc3c(c(=O)n1C2)COC(=O)[C@]3(O)CC [SN-38]; details: max 0.3 µM
How it was run: as §1

Carboplatin = compound: C1CC(C1)(C(=O)[O-])C(=O)[O-].N.N.[Pt+2] [Carboplatin]; details: max 10 µM
How it was run: as §1

Alisertib = compound: COc1cc(Nc2ncc3c(n2)-c2ccc(Cl)cc2C(c2c(F)cccc2OC)=NC3)ccc1C(=O)O [Alisertib]; details: max 10 µM
How it was run: as §1

Palbociclib = compound: CC(=O)c1c(C)c2cnc(Nc3ccc(N4CCNCC4)cn3)nc2n(C2CCCC2)c1=O [Palbociclib]; details: max 10 µM
How it was run: as §1

AZD0156 = compound: CN(C)CCCOc1ccc(-c2ccc3ncc4c(c3c2)n(C2CCOCC2)c(=O)n4C)cn1 [AZD0156]; details: max 3 µM
How it was run: as §1

AZD7648 = compound: Cc1cc2ncnn2cc1Nc1ncc2c(n1)n(C1CCOCC1)c(=O)n2C [AZD7648]; details: max 10 µM
How it was run: as §1

AZD5153 = compound: COc1nnc2ccc(N3CCC(c4ccc(OCCN5CCN(C)C(=O)[C@H]5C)cc4)CC3)nn12 [AZD5153]; details: max 1 µM
How it was run: as §1

Gemcitabine = compound: Nc1ccn([C@@H]2O[C@H](CO)[C@@H](O)C2(F)F)c(=O)n1 [Gemcitabine]; details: max 0.3 µM
How it was run: as §1

AZD5363 = compound: C1CN(CCC1(C(=O)N[C@@H](CCO)C2=CC=C(C=C2)Cl)N)C3=NC=NC4=C3C=CN4 [AZD5363]; details: max 10 µM
How it was run: as §1

AZD8186 = compound: C[C@@H](Nc1cc(F)cc(F)c1)c1cc(C(=O)N(C)C)cc2c(=O)cc(N3CCOCC3)oc12 [AZD8186]; details: max 10 µM
How it was run: as §1

Doxorubicin = compound: COc1cccc2c1C(=O)c1c(O)c3c(c(O)c1C2=O)C[C@@](O)(C(=O)CO)C[C@@H]3O[C@H]1C[C@H](N)[C@H](O)[C@H](C)O1 [Doxorubicin]; details: max 1 µM
How it was run: as §1

Prexasertib = compound: COc1cccc(OCCCN)c1-c1cc(Nc2cnc(C#N)cn2)n[nH]1 [Prexasertib]; details: max 1 µM
How it was run: as §1

AZD1775 = compound: C=CCn1c(=O)c2cnc(Nc3ccc(N4CCN(C)CC4)cc3)nc2n1-c1cccc(C(C)(C)O)n1 [AZD1775]; details: max 3 µM
How it was run: as §1

Savolitinib = compound: C[C@@H](c1ccc2nccn2c1)n1nnc2ncc(-c3cnn(C)c3)nc21 [Savolitinib]; details: max 1 µM
How it was run: as §1

AZD5991 = compound: Cc1c2c(nn1C)CSCc1cc(n(C)n1)CSc1cc(c3ccccc3c1)OCCCc1c(C(=O)O)n(C)c3c-2c(Cl)ccc13 [AZD5991]; details: max 1 µM
How it was run: as §1

Taselisib = compound: Cc1nc(-c2cn3c(n2)-c2ccc(-c4cnn(C(C)(C)C(N)=O)c4)cc2OCC3)n(C(C)C)n1 [Taselisib]; details: max 10 µM
How it was run: as §1

| Cell Line | IC50, cell viability 72 h (AZD6738) | IC50, cell viability 72 h (Dasatinib) | IC50, cell viability 72 h (Olaparib) | IC50, cell viability 72 h (5-Fluorouracil) | IC50, cell viability 72 h (AZD2811) | IC50, cell viability 72 h (Crizotinib) | IC50, cell viability 72 h (Selumetinib) | IC50, cell viability 72 h (Trametinib) | IC50, cell viability 72 h (Etoposide) | IC50, cell viability 72 h [1] | IC50, cell viability 72 h (SG3199) | IC50, cell viability 72 h (SRA737) | IC50, cell viability 72 h (Paclitaxel) | IC50, cell viability 72 h (Lapatinib) | IC50, cell viability 72 h (AZD4320) | IC50, cell viability 72 h (Gefitinib) | IC50, cell viability 72 h (AZD1390) | IC50, cell viability 72 h (Venetoclax) | IC50, cell viability 72 h (MK-2206) | IC50, cell viability 72 h (SN-38) | IC50, cell viability 72 h (Carboplatin) | IC50, cell viability 72 h (Alisertib) | IC50, cell viability 72 h (Palbociclib) | IC50, cell viability 72 h (AZD0156) | IC50, cell viability 72 h (AZD7648) | IC50, cell viability 72 h (AZD5153) | IC50, cell viability 72 h (Gemcitabine) | IC50, cell viability 72 h (AZD5363) | IC50, cell viability 72 h (AZD8186) | IC50, cell viability 72 h (Doxorubicin) | IC50, cell viability 72 h (Prexasertib) | IC50, cell viability 72 h (AZD1775) | IC50, cell viability 72 h (Savolitinib) | IC50, cell viability 72 h (AZD5991) | IC50, cell viability 72 h (Taselisib) |
| --- | --- | --- | --- | --- | --- | --- | --- | --- | --- | --- | --- | --- | --- | --- | --- | --- | --- | --- | --- | --- | --- | --- | --- | --- | --- | --- | --- | --- | --- | --- | --- | --- | --- | --- | --- |
| CAL-148 (Breast Carcinoma) | 3820 nM | > 2000 nM | > 10000 nM | > 20000 nM | 26.2 nM | > 10000 nM | > 10000 nM | > 1000 nM | 590 nM | > 5000 nM | > 1 nM | > 10000 nM | 45.2 nM | > 10000 nM | > 1000 nM | > 10000 nM | > 300 nM | > 1000 nM | 1380 nM | 2.5 nM | > 10000 nM | 1330 nM | > 10000 nM | > 3000 nM | > 10000 nM | 803 nM | 29.9 nM | 274 nM | > 10000 nM | 54.9 nM | 234 nM | 206 nM | > 1000 nM | > 1000 nM | 241 nM |
| TE-9 (Esophageal Squamous Cell Carcinoma) | > 10000 nM | > 2000 nM | > 10000 nM | > 20000 nM | > 1000 nM | > 10000 nM | > 10000 nM | > 1000 nM | > 10000 nM | > 5000 nM | > 1 nM | > 10000 nM | 68 nM | > 10000 nM | > 1000 nM | > 10000 nM | > 300 nM | > 1000 nM | > 10000 nM | > 300 nM | > 10000 nM | > 10000 nM | > 10000 nM | > 3000 nM | > 10000 nM | > 1000 nM | > 300 nM | > 10000 nM | > 10000 nM | > 1000 nM | 548 nM | 1150 nM | > 1000 nM | > 1000 nM | > 10000 nM |
| DoTc2-4510 (Cervical Carcinoma) | > 10000 nM | > 2000 nM | > 10000 nM | > 20000 nM | > 1000 nM | > 10000 nM | > 10000 nM | > 1000 nM | > 10000 nM | > 5000 nM | > 1 nM | > 10000 nM | 456 nM | > 10000 nM | > 1000 nM | > 10000 nM | > 300 nM | > 1000 nM | > 10000 nM | 9.33 nM | > 10000 nM | > 10000 nM | > 10000 nM | > 3000 nM | > 10000 nM | > 1000 nM | > 300 nM | > 10000 nM | > 10000 nM | 518 nM | 59.5 nM | 2900 nM | > 1000 nM | > 1000 nM | 4860 nM |
